Laboratory results taken from patent publication US20060270727A1, “Small molecule therapeutics and uses therefor” (priority 2005, published 2006).
Where two headings read alike, the source gives them in different places.

What was measured:
[1] = test system: sticky DNA in plasmid pRW4886, two tracts of (GAA)176; assay: Sticky DNA disruption, EcoNI digestion and agarose gel; assay type: biochemical; settings: 37° C., 1 hr
Protocol: Influence of Polyamides on Sticky DNA Conformation. Plasmid pRW4886, which contains two tracts of (GAA)176 (SEQ ID NO: ______) in a direct repeat orientation (Vetcher et al., 2002b, Id)., and forms sticky DNA, was treated with polyamides at concentrations of 0-50 μM at 37° C. for 1 hr. Restriction digestion with EcoNI following the polyamide incubation enabled visualization of the presence or absence of an EcoNI cleaved sticky DNA band that runs with decreased mobility compared to the linearized plasmid on 1% agarose gels. Quantitation was by densitometric analysis using Fluor Chem version 3.04 (Alpha Innotech Corp).
The capacity of sequence-specific polyamides to disrupt the intramolecular sticky DNA structure formed by GAA repeat tracts was investigated. Plasmids harboring the sticky DNA structure are visualized by gel electrophoresis after restriction endonuclease cleavage, by methods well known in the art. […] Plasmid pRW4886, which contains two tracts of (GAA)176 (SEQ ID NO: ______) in a direct repeat orientation (Vetcher et al., 2002b, Id.), was incubated with each of polyamides FA1, FA2, FA3 and FA4 at concentrations ranging from 0-50 μM. The polyamide-bound DNA was then digested with EcoNI and subjected to electrophoresis on 1% agarose gels to determine the amount of EcoNI cleaved sticky DNA retarded band present. Incubation of pRW4886 DNA with FA3 shifted the equilibrium from a maximum amount of sticky DNA to a complete loss of the EcoNI cleaved sticky DNA retarded band at a concentration of 50 nM. […] For FA1, a 1 μM concentration was needed to dissociate the DNA-DNA structure-forming region. […] Since sticky DNA inhibits transcription (Ohshima et al., Id.; Sakamoto et al., 2001, J. Biol. Chem. 276:27171-27177), and since the polyamides destabilize this conformation by shifting the structural equilibrium to duplex B-type DNA, it is highly likely that the increases in frataxin mRNA observed with polyamide FA1 are due to this structural transition.

[2] = molecular target: GAA·TTC duplex repeats in the frataxin gene; radiolabeled PCR product containing a (GAA)6 sequence; assay: Quantitative DNase I footprinting on (GAA)6 DNA; assay type: binding; settings: for sequence specificity: DNase I footprinting; for binding affinity for duplex GAA•TTC repeat DNA, in words: compared with FA1
Description: Targeting GAA Repeat DNA with Polyamides. β-Alanine linked polyamides FA1-FA6 were synthesized (see Example 6) with sequence, theoretical DNA binding site, theoretical DNA binding site SEQ ID NO: ______) and binding affinity as shown in Table 1. […] Those of skill in the art will recognize that this value may be an underestimation of the affinity of this molecule for GAA repeat DNA since the KD measurements are limited by a minimum DNA concentration of ˜2 pM in the binding reaction. Radiolabeling of nucleic acid incorporated γ^32P ATP and polynucleotide kinase used standard procedures.
Polyamlde Synthesis and Characterization. Polyamides were synthesized by solid phase methods (Urbach & Dervan, Id.; Baird & Dervan, 1996, J. Am. Chem. Soc. 118:6141-6146) and their identity and purity verified by MALDI-TOF MS and analytical HPLC, using methods well known in the art. Fluorescent conjugates were prepared by coupling BODIPY (Molecular Probes) to the carboxyl-terminus (Best et al., 2003, Proc. Natl. Acad. Sci. U.S.A. 100:12063-12068). Binding affinities for match and mismatch sites were determined by quantitative DNase I footprinting (Trauger & Dervan, Id). A plasmid harboring six GAA repeats was constructed by cloning the oligonucleotide
in the pCR2.1 TOPO vector (Invitrogen, Calif.), and a 117 bp singly end-labeled PCR product was generated from this plasmid with the following oligonucleotides:
where the second oligonucleotide was labeled with γ-^32P ATP and polynucleotide kinase, using standard procedures, to generate a PCR product labeled on the GAA strand. A 204 bp singly end-labeled PCR product was derived from plasmid pMP142 DNA, containing 33 GAA repeats (Ohshima et al., Id.), with following oligonucleotides: […]

[3] = test system: mismatch DNA sequence 5′-GGAGGAGGTGGAGGAGGA-3′ from the erbB2 (Her2-neu) promoter; assay: DNase I footprinting on mismatch DNA; assay type: binding, human; settings: polyamide concentrations up to 100 nM
Protocol: Two additional molecules, FA5 [(ImPyβ)4ImβDp] and FA6 [(ImPyβ)5ImβDp], were synthesized in order to target longer regions of GAA repeats in duplex DNA; i.e., (AAG)5 (SEQ ID NO: ______) and (AAG)6 (SEQ ID NO: ______) respectively. […] As another test for sequence specificity, footprinting experiments with FA1 and FA3 and a radiolabeled DNA fragment containing a mismatch DNA sequence 5′-GGAGGAGGTGGAGGAGGA-3′ (SEQ ID NO: ______) were performed.
The first oligonucleotide shown was radiolabeled as above to generate a PCR product labeled on the GAA strand. A 150 bp PCR product containing a (GGA•TCC)6 mismatch sequence was derived from the erbB2 (Her2-neu) promoter in human genomic DNA with the following oligonucleotides: […]

[4] = test system: frataxin mRNA in GM15850 FRDA lymphoid cell line; assay: qRT-PCR of frataxin mRNA, FRDA cell line; assay type: cell-based, human; settings: GM15850 FRDA cell line; 7 days incubation
Description: GAA Specific Polyamides Up Regulate Frataxin mRNA and Protein. To assess whether polyamides alleviate transcription inhibition caused by expanded GAA repeats in the frataxin gene, quantitative real time/reverse transcriptase PCR (qRT-PCR) was used to monitor frataxin mRNA levels in the GM15850 and GM15851 lymphoid cell lines described above; levels of glyceraldehyde 3-phosphate dehydrogenase (GAPDH) mRNA were used as an internal control for each RNA sample; see Example 8. No differences in GAPDH were found between the two cell lines. […] No changes in frataxin mRNA levels were observed on shorter incubation times.
Cell Culture. Epstein Barr virus transformed lymphoblast cell lines GM15850 from a FRDA patient (alleles with 650 and 1030 GAA repeats in the frataxin gene, from the Coriell Cell Repository, Camden, N.J.), and GM15851 from an unaffected sibling (normal range of repeats), were propagated in RMPI 1640 medium with 2 mM L-glutamine and 15% fetal bovine serum at 37° C. in 5% CO2. Cell growth and morphology were monitored by phase contrast microscopy and viability by trypan blue exclusion and an ATP assay (ApoSENSOR™, BioVision). Polyamides were added directly to the culture medium in PBS. Nuclear localization of the polyamides was verified by deconvolution microscopy, by methods well known in the art (see e.g., Dudouet et al., Chem. Biol., 2003, 10: 859-867).
Real-Time Quantitative RT-PCR. Real-time quantitative RT-PCR (qRT-PCR) analysis was performed essentially as previously described (Chuma, et al., 2003, Hepatology 37:198-207), using the following primers for the frataxin gene: […]
RNA was standardized by quantification of GAPDH mRNA (Pattyn et al., 2003, Nucleic Acids Res. 31:122-123), and all values are expressed relative to GAPDH. qRT-PCR was performed using iScript One-Step RT-PCR kit with SYBR green (Biorad). Statistical analysis was performed on three independent quantitative RT-PCR experiments for each RNA sample.

[5] = quantitative DNase I footprinting, mean and standard deviation, minimum of two determinations, read-out: Binding affinity (KD)

For `CN(C)CCCNC(=O)CCNC(=O)c1cc(NC(=O)CCNC(=O)c2nc(NC(=O)c3nc(NC(=O)CCNC(=O)c4cc(NC(=O)c5nc(NC(=O)CCNC(=O)c6cc(NC(=O)c7nccn7C)cn6C)cn5C)cn4C)cn3C)cn2C)cn1C` [FA4, (ImPyβ)2ImImβPyβDp], the “concentration needed to affect or dissociate sticky DNA” value [1] was at least 5 µM, the Kd ([2]; (GAA)6 DNA, values in text, read-out: apparent dissociation constant (KD)) was 2 nM and the “binding affinity, times less than FA3” value ([2]; FA4 vs FA3) was about 1000 times. The “reduction of binding affinity vs match polyamide” value ([2]; mismatch vs match polyamide (FA2 vs FA1, FA4 vs FA3)) was “three orders of magnitude”.
`CN(C)CCCNC(=O)CCNC(=O)c1nc(NC(=O)CCNC(=O)c2cc(NC(=O)c3nc(NC(=O)CCNC(=O)c4cc(NC(=O)c5nc(NC(=O)CCNC(=O)c6cc(NC(=O)c7nc(NC(=O)CCNC(=O)c8cc(NC(=O)c9nc(NC(=O)CCNC(=O)c%10cc(NC(=O)c%11nccn%11C)cn%10C)cn9C)cn8C)cn7C)cn6C)cn5C)cn4C)cn3C)cn2C)cn1C` [FA6, (ImPyβ)5ImβDp] was tested, and the sequence specificity [2] was “less specific than FA1 or FA3”, the “binding affinity for duplex GAA•TTC repeat DNA, in words” value [2] was “comparable to that of FA1” and the Kd [2, 5] was 0.22 ± 0.08 nM.
With `CN(C)CCCNC(=O)CCNC(=O)c1nc(NC(=O)CCNC(=O)c2cc(NC(=O)c3nccn3C)cn2C)cn1C` [ImPyβImβDp] the binding affinity ([2]; six bp sequence 5′-AAGAAG-3′) was “low μM”.
For `CN(C)CCCNC(=O)CCNC(=O)c1nc(NC(=O)CCNC(=O)c2cc(NC(=O)c3nc(NC(=O)CCNC(=O)c4cc(NC(=O)c5nc(NC(=O)CCNC(=O)c6cc(NC(=O)c7nc(NC(=O)CCNC(=O)c8cc(NC(=O)c9nccn9C)cn8C)cn7C)cn6C)cn5C)cn4C)cn3C)cn2C)cn1C` [FA5, (ImPyβ)4ImβDp], the sequence specificity [2] was “less specific than FA1 or FA3”, the “binding affinity for duplex GAA•TTC repeat DNA, in words” value [2] was “comparable to that of FA1” and the Kd [2, 5] was 0.2 ± 0.02 nM.
For `CN(C)CCCNC(=O)CCNC(=O)c1nc(NC(=O)CCNC(=O)c2cc(NC(=O)c3nc(NC(=O)CCNC(=O)c4cc(NC(=O)c5nc(NC(=O)CCNC(=O)c6cc(NC(=O)c7nccn7C)cn6C)cn5C)cn4C)cn3C)cn2C)cn1C` [FA3, (ImPyβ)3ImβDp], the “concentration for complete loss of the EcoNI cleaved sticky DNA retarded band” value [1] was 50 nM, the “binding to mismatch DNA sequence” value [3] was “Neither FA1 nor FA3 bound this DNA sequence” and the “effect on frataxin mRNA levels, in words” value [4] was “did not increase frataxin mRNA levels”. It also gave a Kd ([2]; footprinting at low (~2 pM) DNA concentrations, may underestimate affinity, read-out: KD) of about 0.003 nM and a Kd [2, 5] of 0.003 ± 0.001 nM.
